In ChEMBL document CHEMBL1137458, “Discovery of novel and orally active NR2B-selective N-methyl-D-aspartate (NMDA) antagonists, pyridinol derivatives with reduced HERG binding affinity” (Bioorg Med Chem Lett, 2007):
In brackets after ≈: the same amount, converted by molar mass.

Key:
[1] = target: Glutamate receptor ionotropic, NMDA 2B (Rattus norvegicus, UniProt Q00960); test: Displacement of [3H]CP-101606 from NR2B in rat forebrain P2 membrane; format: cell membranes, Brain
[2] = Solubility at pH 6.5; format: physicochemical; details: buffer
[3] = target: Voltage-gated inwardly rectifying potassium channel KCNH2 (Homo sapiens, UniProt Q12809); test: Displacement of [3H]dofetilide from human HERG expressed in HEK293 cells; format: cell-based
Sequence of Voltage-gated inwardly rectifying potassium channel KCNH2 (Q12809 whole entry): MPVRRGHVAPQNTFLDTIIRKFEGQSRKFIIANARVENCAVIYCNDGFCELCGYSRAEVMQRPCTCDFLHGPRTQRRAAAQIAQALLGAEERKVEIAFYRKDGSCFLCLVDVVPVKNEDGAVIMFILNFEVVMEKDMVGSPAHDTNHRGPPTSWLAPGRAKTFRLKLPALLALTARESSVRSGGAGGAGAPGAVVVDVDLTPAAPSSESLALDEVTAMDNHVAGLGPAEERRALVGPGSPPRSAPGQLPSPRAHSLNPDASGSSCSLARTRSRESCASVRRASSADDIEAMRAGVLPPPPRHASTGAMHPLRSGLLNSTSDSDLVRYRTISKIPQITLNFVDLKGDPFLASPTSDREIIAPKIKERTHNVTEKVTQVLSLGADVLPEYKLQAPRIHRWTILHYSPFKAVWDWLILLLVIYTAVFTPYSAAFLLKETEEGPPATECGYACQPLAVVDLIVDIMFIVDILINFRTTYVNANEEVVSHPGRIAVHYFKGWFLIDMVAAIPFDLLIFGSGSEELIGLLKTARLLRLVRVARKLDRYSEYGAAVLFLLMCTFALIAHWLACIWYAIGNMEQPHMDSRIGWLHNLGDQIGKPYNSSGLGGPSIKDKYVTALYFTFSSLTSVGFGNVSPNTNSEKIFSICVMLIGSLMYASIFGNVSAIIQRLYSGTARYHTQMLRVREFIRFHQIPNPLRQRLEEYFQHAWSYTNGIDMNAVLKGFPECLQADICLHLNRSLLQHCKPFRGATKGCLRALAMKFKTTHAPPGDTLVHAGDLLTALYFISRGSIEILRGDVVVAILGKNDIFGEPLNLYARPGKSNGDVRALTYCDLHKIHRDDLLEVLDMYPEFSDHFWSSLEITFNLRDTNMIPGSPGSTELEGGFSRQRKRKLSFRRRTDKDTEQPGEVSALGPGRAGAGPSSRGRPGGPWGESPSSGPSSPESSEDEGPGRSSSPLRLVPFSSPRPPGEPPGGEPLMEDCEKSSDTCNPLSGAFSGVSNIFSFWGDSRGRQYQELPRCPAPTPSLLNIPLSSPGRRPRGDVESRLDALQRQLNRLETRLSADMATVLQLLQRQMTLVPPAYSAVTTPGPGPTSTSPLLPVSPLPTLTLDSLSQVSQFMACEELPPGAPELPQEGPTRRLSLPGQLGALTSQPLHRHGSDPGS

[4] = Bioavailability in mouse; format: ADME, organism-based; details: in vivo
[5] = Metabolic stability assessed Half life in human liver microsomes; format: ADME, Microsome
hERG (KCNH2) = hERG (KCNH2) (Homo sapiens, UniProt Q12809); test: Inhibition of HERG current at 30 uM
Sequence of hERG (KCNH2) (Q12809 whole entry): as above

Mus musculus = test: Antiallodynic activity in po dosed mouse partial sciatic nerve ligation model; format: functional

Sequence of Glutamate receptor ionotropic, NMDA 2B (Q00960 whole entry): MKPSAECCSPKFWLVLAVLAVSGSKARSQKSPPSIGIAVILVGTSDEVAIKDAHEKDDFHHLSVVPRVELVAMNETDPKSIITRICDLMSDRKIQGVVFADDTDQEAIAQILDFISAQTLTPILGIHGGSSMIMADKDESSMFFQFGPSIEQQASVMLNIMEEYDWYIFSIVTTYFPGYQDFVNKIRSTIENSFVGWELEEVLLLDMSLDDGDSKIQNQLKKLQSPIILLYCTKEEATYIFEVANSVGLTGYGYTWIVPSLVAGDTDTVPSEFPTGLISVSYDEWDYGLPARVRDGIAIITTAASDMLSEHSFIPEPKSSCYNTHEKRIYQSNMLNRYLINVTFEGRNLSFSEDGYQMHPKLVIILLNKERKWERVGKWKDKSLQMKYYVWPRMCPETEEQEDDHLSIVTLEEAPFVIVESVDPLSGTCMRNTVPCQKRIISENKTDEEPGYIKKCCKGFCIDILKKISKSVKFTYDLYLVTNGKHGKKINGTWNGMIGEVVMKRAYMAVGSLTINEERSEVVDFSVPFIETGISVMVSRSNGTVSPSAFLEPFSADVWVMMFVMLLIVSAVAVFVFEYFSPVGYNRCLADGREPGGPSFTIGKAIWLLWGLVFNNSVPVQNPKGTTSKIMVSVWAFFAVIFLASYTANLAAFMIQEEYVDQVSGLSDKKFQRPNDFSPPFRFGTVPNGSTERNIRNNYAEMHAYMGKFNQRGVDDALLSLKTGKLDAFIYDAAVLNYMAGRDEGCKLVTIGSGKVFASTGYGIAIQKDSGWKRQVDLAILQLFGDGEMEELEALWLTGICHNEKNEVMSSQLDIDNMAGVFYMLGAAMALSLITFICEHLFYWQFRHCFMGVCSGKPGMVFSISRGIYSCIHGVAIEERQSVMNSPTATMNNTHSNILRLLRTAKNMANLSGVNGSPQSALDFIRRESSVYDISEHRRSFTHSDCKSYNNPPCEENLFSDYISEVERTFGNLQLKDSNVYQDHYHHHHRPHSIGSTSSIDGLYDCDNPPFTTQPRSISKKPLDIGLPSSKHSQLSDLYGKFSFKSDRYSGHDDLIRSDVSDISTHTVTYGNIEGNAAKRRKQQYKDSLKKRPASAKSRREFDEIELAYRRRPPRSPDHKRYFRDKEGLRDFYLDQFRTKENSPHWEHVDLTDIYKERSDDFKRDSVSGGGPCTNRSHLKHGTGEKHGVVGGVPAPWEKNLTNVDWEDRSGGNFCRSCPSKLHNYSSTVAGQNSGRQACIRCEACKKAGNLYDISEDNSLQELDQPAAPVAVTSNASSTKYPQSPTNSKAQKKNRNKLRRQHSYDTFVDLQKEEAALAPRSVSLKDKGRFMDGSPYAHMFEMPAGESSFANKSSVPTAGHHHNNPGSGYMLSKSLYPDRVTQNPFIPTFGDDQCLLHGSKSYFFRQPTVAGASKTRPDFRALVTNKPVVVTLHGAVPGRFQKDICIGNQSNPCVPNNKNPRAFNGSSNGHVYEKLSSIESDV

IC50 [1] [nM] | SMILES | IC50 [3] [nM] | other results
19 | O=C(CCc1ccccc1)N[C@H]1CC[C@](O)(c2ccc(O)cc2)CC1 | > 30000 | solubility [2]: 20 µg/mL (≈ 58.9 µM)
189 | Cc1cc([C@]2(O)CC[C@@H](NC(=O)CCc3ccccc3)CC2)ccc1O |  | IC50 ([3]; hek293): > 10000 nM; solubility [2]: < 5 µg/mL
722 | Cc1cc(O)ccc1[C@H]1CC[C@H](NC(=O)CCc2ccccc2)CC1 |  | 
13 | O=C(CCc1ccccc1)N[C@H]1CC[C@](O)(c2ccc(O)c(F)c2)CC1 |  | solubility [2]: 17 µg/mL (≈ 47.6 µM)
10 | O=C(CCc1ccccc1)N[C@H]1CC[C@](O)(c2ccc(O)cn2)CC1 | > 30000 | bioavailability [4]: 27%; half-life [5]: > 1 h; inhibition at 30 µM (hERG (KCNH2)): 9%; MED (Mus musculus): 10 mg/kg; solubility [2]: 130 µg/mL (≈ 382 µM)
85 | O=C(CCc1ccccc1)N[C@H]1CC[C@](O)(c2c[nH]c3nc(=O)oc-3c2)CC1 |  | 
116 | Cc1cc([C@]2(O)CC[C@@H](NC(=O)CCc3ccccc3)CC2)ncc1O |  | 
2440 | O=C(CCc1ccccc1)N[C@H]1CC[C@](O)(c2cn[nH]c2)CC1 |  | 
4960 | O=C(CCc1ccccc1)N[C@H]1CC[C@](O)(c2ccc3nc[nH]c3c2)CC1 |  | 
25 | Cc1cc(O)ccc1[C@]1(O)CC[C@@H](NC(=O)CCc2ccccc2)CC1 |  | IC50 ([3]; hek293): > 10000 nM

More lines, now with the values behind:

SMILES | IC50 [1] [nM] | IC50 [3] [nM] | other results
O=C(CCc1ccccc1)N[C@H]1CC[C@H](c2ccc(O)cc2)CC1 | 30 |  | solubility [2]: < 5 µg/mL
O=C(CCc1cccnc1)N[C@H]1CC[C@H](c2ccc(O)cc2)CC1 | > 1000 |  | 
O=C(CCc1ccccn1)N[C@H]1CC[C@H](c2ccc(O)cc2)CC1 | 856 | > 30000 | 
Cc1cnc(CCC(=O)N[C@H]2CC[C@H](c3ccc(O)cc3)CC2)s1 | 96 | > 10000 | 
O=C(N[C@H]1CC[C@H](c2ccc(O)cc2)CC1)C1Cc2ccccc2CN1 (stereo partly drawn) | > 1000 | > 30000 | solubility [2]: 18 µg/mL (≈ 51.4 µM)
CN(C)C(Cc1ccccc1)C(=O)N[C@H]1CC[C@H](c2ccc(O)cc2)CC1 (stereo partly drawn) | > 1000 |  | 
Cc1cc([C@H]2CC[C@H](NC(=O)CCc3ccccc3)CC2)ccc1O | > 5000 |  | 
O=C(CCc1ccccc1)N[C@H]1CC[C@H](c2ccc(O)c(F)c2)CC1 | 59 |  | IC50 ([3]; hek293): > 10000 nM
O=C1CCc2cc([C@@H](O)CN3CCC(O)(c4cccc(F)c4)CC3)ccc2N1 |  | 1100 | 
CS(=O)(=O)Nc1ccc([C@]2(O)CC[C@@H](NC(=O)CCc3ccccc3)CC2)cn1 | > 5000 |  | 
Nc1ccc([C@]2(O)CC[C@@H](NC(=O)CCc3ccccc3)CC2)cn1 | > 5000 |  | 
O=C1CC(Cc2ccccc2)CCN1CC(O)c1ccc(O)cc1 (stereo not drawn) |  | > 30000 | 
Cn1c(CCC(=O)N[C@H]2CC[C@H](c3ccc(O)cc3)CC2)nc2ccccc21 | > 1000 |  | 
O=C(CCc1ccccc1)N[C@H]1CC[C@](O)(c2c[nH]cn2)CC1 | > 5000 |  | 
C[C@@H]([C@@H](O)c1ccc(O)cc1)N1CCC(Cc2ccccc2)CC1 [(S)-IFENPRODIL] |  | < 1000 | 
